Test results reported in patent US20080269233A1, “Piperidinoyl-Pyrrolidine and Piperidinoyl-Piperidine Compounds” (priority 2006, published 2008).

Experiments:
MC4 receptor = MC4 receptor (Homo sapiens, UniProt P32245); experiment: MC4 receptor functional potency (EC50), Protocol E of WO 2005/077935; format: cell-based; conditions: read-out: functional potency at the MC4 receptor expressed as an EC50
Description: MC5 and MC4 activity was determined as described by assay protocols D and E, respectively, in US2005/0176772 (pages 28-30).

[1] = tested on: men with psychogenic and organic ED; conditions: cited from earlier work

Chain of MC4 receptor (P32245 whole entry): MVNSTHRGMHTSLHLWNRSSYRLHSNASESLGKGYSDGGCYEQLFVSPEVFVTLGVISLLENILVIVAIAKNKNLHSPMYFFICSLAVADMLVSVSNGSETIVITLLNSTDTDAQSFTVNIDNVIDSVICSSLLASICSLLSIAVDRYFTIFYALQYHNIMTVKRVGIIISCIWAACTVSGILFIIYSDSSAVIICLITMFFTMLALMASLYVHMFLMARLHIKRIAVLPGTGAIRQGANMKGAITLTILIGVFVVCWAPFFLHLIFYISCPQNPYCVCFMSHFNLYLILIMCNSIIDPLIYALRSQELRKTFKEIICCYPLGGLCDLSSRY

EC50 (MC4 receptor) [nM]	Molecule	increased sexual desire reported (share of doses) ([1]; 13/19 doses, questionnaire, P<0.01 vs placebo) [%]	subjects with severe nausea ([1]; dose of 0.025 mg/kg) [%]	penile erection (number of men) ([1]; in the absence of sexual stimulation, men with psychogenic and organic ED)	mean duration of Rigiscan tip rigidity >80% ([1]; penile rigidity monitored for 6 hours using RigiScan) [min]
1.5	CO[C@H]1CN(C(=O)[C@@H]2CN(c3cccnn3)C[C@H]2c2ccc(F)cc2F)CC[C@]1(OC)c1ccccc1 [Example 8, 3-[(3R,4S)-3-(2,4-difluorophenyl)-4-{[(3S,4S)-3,4-dimethoxy-4-phenylpiperidin-1-yl]carbonyl}pyrrolidin-1-yl]pyridazine]	–	–	–	–
11.5	CO[C@H]1CN(C(=O)[C@@H]2CN(c3cccnn3)C[C@H]2c2ccc(F)cc2F)CC[C@]1(OC)c1ccc(F)cc1 [Example 15, 3-[(3R,4S)-3-(2,4-difluorophenyl)-4-{[(3S,4S)-4-(4-fluorophenyl)-3,4-dimethoxypiperidin-1-yl]carbonyl}pyrrolidin-1-yl]pyridazine]	–	–	–	–
–	Melanotan II	68	12.9	17 of 20	41
44	CCO[C@@H]1CN(C(=O)[C@@H]2CN(c3cccnn3)C[C@H]2c2ccc(F)cc2F)CC[C@@]1(O)c1ccccc1 [Example 13, (3R,4R)-1-{[(3S,4R)-4-(2,4-difluorophenyl)-1-pyridazin-3-ylpyrrolidin-3-yl]carbonyl}-3-ethoxy-4-phenylpiperidin-4-ol]	–	–	–	–
